Holding throughout (details): PKIS2 primary screening
Data set [1] concerns endogenous TFEB. As to the kind of experiment: TFEB nuclear translocation, immunocytochemistry high-content imaging. It is filed as cell-based.
In data set [2] the test system is SH-SY5Y cells. As to the kind of experiment: AK (adenylate kinase) release ToxiLight cytotoxicity assay. Note: reference of the scale not given here.
The test system of data set [3] is SH-SY5Y cells. As to the kind of experiment: Nuclear count from microscopy images (cellular growth and toxicity). Note: reference of the scale not given here.
Data set [4] concerns SH-SY5Y cells.
Text: The PKIS2 Library was supplied by The Structural Genomics Consortium at the University of North Carolina at Chapel Hill.
Data set [5] concerns endogenous TFE3. As to the kind of experiment: TFE3 nuclear translocation, immunocytochemistry high-content imaging. It counts as cell-based.

Read-outs that look alike come from different tables or passages of the source.
Throughout, for DQ Intensity: reference of the scale not given here.
Throughout, for DQ Spot: reference of the scale not given here.

Consider `FC(F)(F)c1ccccc1-c1cc(-c2c[nH]nc2-c2ccccn2)ccn1` [UNC10225184A], for which the TFEB % in data set [1] was determined as 5.60%. This compound registered an AK in data set [2] of 124.66. Further, in data set [3], the “Nuclear Count” value is 131.35. For the same compound, the “DQ Intensity” value in data set [4] (DQ Red BSA intensity) worked out at 88.51. In addition, the “DQ Spot” value in data set [4] (DQ Red BSA spot count) is given as 92.76. The compound further showed a TFE3 % in data set [5] of 4.50%.
For the compound `CN1CCN(CCCNc2nccc(-c3c(-c4ccc(F)cc4)nn4cc(C(N)=O)ccc34)n2)CC1` [UNC10225188A], in data set [1], the TFEB % is 6.08%. The compound also displayed an AK in data set [2] of 105.02. Also, in data set [3], the “Nuclear Count” value was found to be 94.19. Further, in data set [4], the “DQ Intensity” value amounted to 87.92 and the “DQ Spot” value is recorded as 111.81. This compound also showed a TFE3 % in data set [5] of 19.47%.
`Cc1nn2c(=O)cc(N3CCO[C@H](C)C3)nc2n1Cc1cccc(Cl)c1Cl` [UNC10225190A] showed a TFEB % in data set [1] of 6.05%. Besides, the AK in data set [2] is listed as 79.35. Also, in data set [3], the “Nuclear Count” value was found to be 111.47. Also, in data set [4], the “DQ Intensity” value is reported as 96.99 and the “DQ Spot” value is recorded as 93.26. This compound also came in with a TFE3 % in data set [5] of 6.51%.
Take `FC(F)(F)c1cc(Br)cc(Nc2nccc(-c3cnn4ncccc34)n2)c1` [UNC10225191A]: the TFEB % in data set [1] is 6.52%. The same compound had an AK in data set [2] of 83.14. Also, the “Nuclear Count” value in data set [3] is recorded as 72.92. In data set [4], the “DQ Intensity” value is given as 110.85 and the “DQ Spot” value came out at 116.61. The compound also came in with a TFE3 % in data set [5] of 14.10%.
`FC(F)(F)c1cc(Nc2nccc(-c3c(-c4ccc(Cl)cc4)nn4ncccc34)n2)ccc1Cl` [UNC10225192A] showed a TFEB % in data set [1] of 6.87%. The compound further came in with an AK in data set [2] of 128.18. The “Nuclear Count” value in data set [3] is 86.86. In addition, in data set [4], the “DQ Intensity” value stood at 96.76 and the “DQ Spot” value was 105.34. Besides, the TFE3 % in data set [5] worked out at 11.31%.
For the compound `CCOc1nccc(-c2c(-c3ccc(F)cc3)ncn2C2CCNCC2)n1` [UNC10225194A], the TFEB % in data set [1] came out at 5.88%. In data set [2], this compound registered an AK of 122.01. In addition, the “Nuclear Count” value in data set [3] was 127.90. Further, in data set [4], the “DQ Intensity” value is listed as 81.72 and the “DQ Spot” value came to 85.28. In data set [5], the TFE3 % turned out to be 13.41%.
`Cc1c(Cn2c3ccccc3n3c(=O)cc(N4CCOCC4)nc23)cccc1C(F)(F)F` [UNC10225195A] had a TFEB % in data set [1] of 7.03%. In data set [2], this compound gave an AK of 76.50. In data set [3], the “Nuclear Count” value came to 108.51. Besides, in data set [4], the “DQ Intensity” value amounted to 86.55 and the “DQ Spot” value is given as 100.26. Also, in data set [5], the TFE3 % came out at 10.62%.
`NCC(NC(=O)c1cc(-c2cn[nH]c2)c(-c2ccnc3[nH]ccc23)s1)c1ccccc1.O=C(O)C(F)(F)F.O=C(O)C(F)(F)F` (stereo not drawn) [UNC10225196A] registered a TFEB % in data set [1] of 5.85%. This compound yielded an AK in data set [2] of 105.21. Also, in data set [3], the “Nuclear Count” value was 81.98. Further, in data set [4] (DQ Red BSA intensity), the “DQ Intensity” value was 69.88. Moreover, in data set [4] (DQ Red BSA spot count), the “DQ Spot” value came to 101.21. For the same compound, the TFE3 % in data set [5] is 18.18%.
The compound `COc1cccc(NC(=O)Nc2ccc(C)c(-c3ccc(C(=O)Nc4ccncc4)cc3)c2)c1` [UNC10225200A] displayed a TFEB % in data set [1] of 7.95%. For the same compound, in data set [2], the AK is 112.40. Further, the “Nuclear Count” value in data set [3] is reported as 79.81. Besides, in data set [4], the “DQ Intensity” value is recorded as 99.65 and the “DQ Spot” value amounted to 116.14. The compound also yielded a TFE3 % in data set [5] of 12.37%.
Regarding `Nc1nc(-c2ccccn2)c(-c2ccnc3ccccc23)s1` [UNC10225201A], the TFEB % in data set [1] amounted to 4.25%. The compound also had an AK in data set [2] of 81.66. For the same compound, the “Nuclear Count” value in data set [3] was determined as 144.30. Moreover, in data set [4] (DQ Red BSA intensity), the “DQ Intensity” value amounted to 97.54. Besides, in data set [4] (DQ Red BSA spot count), the “DQ Spot” value was determined as 92.32. This compound showed a TFE3 % in data set [5] of 10.28%.
In the case of `Nc1ncnc2c1ncn2-c1ccc(Cl)cc1` [UNC10225203A], the TFEB % in data set [1] is recorded as 5.10%. In data set [2], this compound showed an AK of 145.27. The “Nuclear Count” value in data set [3] amounted to 80.96. Moreover, in data set [4], the “DQ Intensity” value was 65.28 and the “DQ Spot” value is on record as 88.83. The TFE3 % in data set [5] worked out at 14.23%.
`CCn1c(-c2ccncc2)nc2cnccc21` [UNC10225204A] came in with a TFEB % in data set [1] of 11.18%. The same compound yielded an AK in data set [2] of 74.70. Further, the “Nuclear Count” value in data set [3] is reported as 104.87. Further, in data set [4], the “DQ Intensity” value is recorded as 98.92 and the “DQ Spot” value turned out to be 103.23. In addition, in data set [5], the TFE3 % is on record as 12.32%.
On to `CCc1nc(-c2cccc(N(C)S(=O)(=O)c3ccccc3)c2)c(-c2ccnc(Nc3ccc(N4CCN(C(C)=O)CC4)nc3)n2)s1` [UNC10225205A], for which the TFEB % in data set [1] amounted to 7.99%. In data set [2], this compound showed an AK of 111.97. For the same compound, the “Nuclear Count” value in data set [3] amounted to 89.51. Also, in data set [4], the “DQ Intensity” value is reported as 90.69 and the “DQ Spot” value is 101.49. In addition, the TFE3 % in data set [5] is 16.25%.
Compound `CCn1c(-c2nonc2N)nc2cncc(CNC3CCNCC3)c21.Cl` [UNC10225211A] had a TFEB % in data set [1] of 4.17%. The compound also displayed an AK in data set [2] of 88.65. Moreover, the “Nuclear Count” value in data set [3] was determined as 84.35. In data set [4], the “DQ Intensity” value was 95.76 and the “DQ Spot” value came to 101.16. Further, in data set [5], the TFE3 % amounted to 12.65%.

The values are drawn from article PMC9851200, “Multiparameter phenotypic screening for endogenous TFEB and TFE3 translocation identifies novel chemical series modulating lysosome function” (Autophagy, 2022).
